Test results reported in ChEMBL document CHEMBL1201862, “PubChem BioAssay data set” (2004).
“And” between values parts separate entries of the source, which are not always exact repeats. Equal entries are not always repeated.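 Briefly, cells in 96-well plates were exposed to five compound concentrations for 48 h, and endpoints were estimated by linear interpolation. The concentration for 50% growth inhibition is given as GI50.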 The source made the active and inactive calls. No stated cut-off is given here; in the data, active = GI50 up to about 1.1 µM and inactive = higher.

Experiments:
Test in all cases: NCI tumour cell line growth inhibition, 48 h
[1] = tested on: SNB-75
[2] = tested on: KM12
[3] = tested on: SNB-19
[4] = tested on: EKVX
[5] = tested on: SK-MEL-2
[6] = tested on: 786-0
[7] = tested on: OVCAR-4
[8] = tested on: Malme-3M
[9] = tested on: HL-60
[10] = tested on: OVCAR-8
[11] = tested on: SK-MEL-28
[12] = tested on: SR
[13] = tested on: HOP-92
[14] = tested on: SK-MEL-5
[15] = tested on: HCT-15
[16] = tested on: IGROV-1
[17] = tested on: MOLT-4
[18] = tested on: SF-539
[19] = tested on: NCI-H23
[20] = tested on: SK-OV-3
[21] = tested on: M14
[22] = tested on: CCRF-CEM
[23] = tested on: OVCAR-5
[24] = tested on: SF-268
[25] = tested on: MDA-MB-231
[26] = tested on: DU-145
[27] = tested on: ACHN
[28] = tested on: NCI-H522
[29] = tested on: SW-620
[30] = tested on: TK-10
[31] = tested on: U-251
[32] = tested on: NCI-H460
[33] = tested on: PC-3
[34] = tested on: UACC-62
[35] = tested on: HT-29
[36] = tested on: K562
[37] = tested on: NCI-H226
[38] = tested on: OVCAR-3
[39] = tested on: MDA-N
[40] = tested on: UO-31
[41] = tested on: MDA-MB-435
[42] = tested on: SN12C
[43] = tested on: UACC-257
[44] = tested on: COLO 205
[45] = tested on: RXF 393
[46] = tested on: HOP-62
[47] = tested on: HCC 2998
[48] = tested on: A549
[49] = tested on: LOX IMVI
[50] = tested on: NCI/ADR-RES
[51] = tested on: MCF7
[52] = tested on: HCT-116
[53] = tested on: SF-295
[54] = tested on: A498
[55] = tested on: T47D
[56] = tested on: CAKI-1
[57] = tested on: Hs-578T

Measured: GI50

COC(=O)[C@@H](NC1(c2ccccc2)c2ccccc2-c2ccccc21)[C@H](OC(=O)[C@H]1CCCN1S(=O)(=O)c1ccccc1)C(=O)OC
> 100 µM: [15]
inactive: [1] 63.2 µM | [2] > 100 µM | [3] > 100 µM | [4] 99.5 µM | [5] 39.8 µM | [6] > 100 µM | [7] > 100 µM | [8] > 100 µM | [9] > 100 µM | [10] > 100 µM | [11] > 100 µM | [12] > 100 µM | [14] > 100 µM | [16] > 100 µM | [17] > 100 µM | [18] > 100 µM | [19] > 100 µM | [20] 70.6 µM | [21] > 100 µM | [22] > 100 µM | [23] > 100 µM | [24] > 100 µM | [25] > 100 µM | [26] > 100 µM | [27] > 100 µM | [28] 82.2 µM | [29] > 100 µM | [30] > 100 µM | [31] > 100 µM | [32] > 100 µM | [33] > 100 µM | [34] > 100 µM | [35] > 100 µM | [36] > 100 µM | [37] > 100 µM | [38] > 100 µM | [39] 72.9 µM | [40] > 100 µM | [41] > 100 µM | [42] > 100 µM | [43] > 100 µM | [44] > 100 µM | [45] > 100 µM | [46] > 100 µM | [47] > 100 µM | [48] > 100 µM | [49] > 100 µM | [50] > 100 µM | [51] > 100 µM | [52] > 100 µM | [53] > 100 µM | [54] > 100 µM | [55] > 100 µM
active: [13] < 10 nM

CN(C)c1ccc(/C=C/c2sc3ccccc3[n+]2C)cc1
4.75 µM and 9.27 µM: [15]
inactive: [3] 2.09 µM and 1.99 µM | [5] 2.82 µM and 2.29 µM | [6] 1.82 µM and 1.61 µM | [7] 2.62 µM and 2.71 µM | [8] 1.54 µM and 1.96 µM | [11] 1.85 µM and 3.44 µM | [13] 3.65 µM and 1.85 µM | [18] 3.18 µM and 4.18 µM | [20] 4.56 µM | [23] 12.7 µM and 10.3 µM | [24] 3.29 µM and 3.4 µM | [27] 1.46 µM and 2.2 µM | [28] 1.93 µM and 1.58 µM | [30] 5.65 µM and 3.37 µM | [56] 2.52 µM and 3.33 µM | [37] 3.71 µM and 2.62 µM | [39] 1.16 µM | [43] 1.82 µM and 1.6 µM | [57] 4 µM and 7.62 µM | [48] 2.2 µM and 3.82 µM | [50] 36.9 µM and > 57 µM | [53] 3.29 µM and 6.35 µM | [54] 14.9 µM and 12.6 µM | [55] 2.47 µM and 4.05 µM
1.09 µM (active) and 1.7 µM (inactive): [14]
active: [9] 180 nM and 348 nM | [17] 270 nM and 238 nM | [19] 1.07 µM and 743 nM | [29] 433 nM and 427 nM | [33] 1.09 µM and 838 nM | [38] 550 nM and 501 nM | [41] 813 nM and 879 nM

Cc1ccc(S(=O)(=O)NCCSCCSCCNS(=O)(=O)c2ccc(C)cc2)cc1
inactive: [1] 20.8 µM | [2] 25.6 µM | [3] 63.4 µM | [7] 34.8 µM | [10] 47.2 µM | [11] > 100 µM | [12] 37.2 µM | [13] 22000 nM | [14] 4.7 µM | [17] 34 µM | [20] 18.4 µM | [22] 36.9 µM | [24] 24 µM | [26] 51.2 µM | [27] 48.6 µM | [28] 62.5 µM | [29] 44.6 µM | [30] 53.2 µM | [31] 4.6 µM | [32] 25.4 µM | [33] 22.6 µM | [35] 28.6 µM | [36] 48.6 µM | [37] 49 µM | [39] 56 µM | [40] 34.1 µM | [42] 47.4 µM | [43] 34.4 µM | [44] 19.4 µM | [45] 56.2 µM | [47] 39.4 µM | [57] 47.2 µM | [48] 30.5 µM | [49] 25.4 µM | [50] 24 µM | [51] 38.9 µM | [52] 34.7 µM | [53] 45.8 µM | [54] 10 µM
